Experimental data published in patent publication US8192962B2, “Processes for detecting toxic substances” (Daikin Industries, Ltd., priority 2001, dated 2012).

How the values were obtained:
[1] = test system: Detoxification protein genes; assay: DNA chip mRNA expression in yeast, detoxification protein genes (Table 8); type: cell-based, Saccharomyces cerevisiae S288C
Outline: (§1)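 Value is the scanned fluorescence intensity ratio of exposed versus chemical-free cells. Log-phase S288C yeast in YPD at 25° C. received one toxic substance for two hours, dosed to slow growth without killing; Cy3/Cy5-labeled cDNA from oligo-dT-purified mRNA was hybridized to a whole-genome chip at 65° C.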

[2] = test system: DNA repair protein genes; assay: DNA chip mRNA expression in yeast, DNA repair protein genes (Table 3); type: cell-based, Saccharomyces cerevisiae S288C; conditions: incubated two hours, concentrations as in the 1st table
Outline: as §1

Measured: The level of expressed mRNA in the presence of chemical substance/The level of expressed mRNA in the absence of chemical substance

manganese ethylenebis(dithiocarbamate) [(8)]
0.9: [2]; yeast gene YEL019C | [2]; yeast gene YER162C | [2]; yeast gene YGL127C | [2]; yeast gene YGL249W | [2]; yeast gene YIL143C | [2]; yeast gene YJR046W | [2]; yeast gene YML032C | [2]; yeast gene YOL043C
0.7: [2]; yeast gene YML058W
1.1: [1]; yeast gene YOR251C | [2]; yeast gene YAL015C | [2]; yeast gene YAR007C | [2]; yeast gene YBR073W | [2]; yeast gene YBR272C | [2]; yeast gene YGR231C | [2]; yeast gene YHR164C | [2]; yeast gene YIL036W | [2]; yeast gene YLR233C | [2]; yeast gene YMR284W | [2]; yeast gene YNL261W
1.4: [1]; yeast gene YPR200C | [2]; yeast gene YGL163C | [2]; yeast gene YIL072W | [2]; yeast gene YLR103C | [2]; yeast gene YMR035W
0.8: [2]; yeast gene YEL037C | [2]; yeast gene YGR258C
1.7: [2]; yeast gene YJR052W
0.5: [1]; yeast gene YPL163C | [2]; yeast gene YIL153W
3.4: [2]; yeast gene YFL014W
1.5: [2]; yeast gene YDL200C | [2]; yeast gene YDR054C | [2]; yeast gene YKL145W | [2]; yeast gene YLR288C
2.0: [2]; yeast gene YMR096W
1.3: [2]; yeast gene YGL058W | [2]; yeast gene YNL250W | [2]; yeast gene YOR005C | [2]; yeast gene YPL194W | [2]; yeast gene YPR025C
1.8: [2]; yeast gene YGL091C | [2]; yeast gene YNL213C
1.2: [2]; yeast gene YBL019W | [2]; yeast gene YDL017W | [2]; yeast gene YDL059C | [2]; yeast gene YIR002C | [2]; yeast gene YJL026W | [2]; yeast gene YNL312W
0.6: [1]; yeast gene YOR273C
1.0: [2]; yeast gene YCR014C | [2]; yeast gene YDR369C | [2]; yeast gene YGR180C | [2]; yeast gene YMR072W | [2]; yeast gene YOR386W | [2]; yeast gene YPL022W | [2]; yeast gene YPL164C
